From US20250064805A1, “Methods of Treating Myeloproliferative Disorders Based on BTK Occupancy & Resynthesis Rate” (Telios Pharma Inc., priority 2022, published 2025) come the findings set out here.

Structures are written as SMILES.

Series [1] in a line: Half-life of Compound 128 in vivo. The procedure:
In myeloproliferative disorders, the de novo resynthesis rate of BTK following covalent inhibition by Compound 128 is greater than the de novo BTK resynthesis rate in B-cell malignancies. […] The short half-life of Compound 128 (1 to 2 hours in vivo), coupled with the faster BTK turnover in myelofibrosis in particular, and myeloproliferative disorders in general, requires higher BID dosing. Thus, a 300 mg BID dose in subjects with myelofibrosis should ensure maximal BTK occupancy at trough levels of this drug.

In another series the target is T1, BTK (Homo sapiens, UniProt Q06187).
T1 construct: endogenous in cells; host or cells: RAMOS B cells, HEL-92, MV-411, MOLM-13, THP-1, UKE-1, primary myeloid cells/monocytes from a healthy donor, primary cells from AML patients
T1 sequence (Q06187 whole entry): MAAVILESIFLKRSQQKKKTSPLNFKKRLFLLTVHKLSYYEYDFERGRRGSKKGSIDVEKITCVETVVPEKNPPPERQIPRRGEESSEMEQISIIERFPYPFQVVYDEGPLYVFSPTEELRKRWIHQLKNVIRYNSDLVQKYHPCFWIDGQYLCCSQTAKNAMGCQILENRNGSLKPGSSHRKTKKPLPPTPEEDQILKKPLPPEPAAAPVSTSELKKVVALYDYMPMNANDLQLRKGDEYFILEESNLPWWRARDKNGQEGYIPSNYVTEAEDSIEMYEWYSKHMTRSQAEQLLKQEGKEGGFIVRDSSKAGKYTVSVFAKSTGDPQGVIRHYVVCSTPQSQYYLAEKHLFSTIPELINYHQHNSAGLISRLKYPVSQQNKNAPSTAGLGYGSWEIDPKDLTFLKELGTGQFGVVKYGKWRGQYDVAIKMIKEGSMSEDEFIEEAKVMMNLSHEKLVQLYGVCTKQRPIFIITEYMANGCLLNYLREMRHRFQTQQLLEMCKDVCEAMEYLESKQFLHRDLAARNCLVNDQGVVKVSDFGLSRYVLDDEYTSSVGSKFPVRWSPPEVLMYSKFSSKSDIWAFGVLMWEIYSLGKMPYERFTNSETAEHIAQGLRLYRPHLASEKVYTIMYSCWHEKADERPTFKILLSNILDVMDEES
The series is described as follows: BTK resynthesis rate in cells after saturating exposure to and washout of Compound 128 (free BTK by ELISA). It is filed as cell-based. The method, then:
Various cell types and tissues show different rates of BTK synthesis (see FIG. 1). Cells were cultured with a saturating concentration of Compound 128 to occupy all BTK protein (0% free BTK). This was followed by a washout of Compound 128 and culturing for up to 48 hours with no BTK inhibitor to allow the cells to synthesize new BTK protein. The rate of BTK protein synthesis was determined by measuring the free BTK by ELISA at different time points. RAMOS B cells resynthesized BTK at a rate of only 26% per day, while Hel-92 and MV-411 cells resynthesized BTK at a rate of over 100% per day. […] The rate of BTK resynthesis in naïve AML patients was roughly 30% per day, with low inter-patient variability.
BTK resynthesis in each cell type was measured as described in Example 1. The left graph (see FIG. 2) depicts the BTK resynthesis rate in monocytes from a normal individual following a two hour exposure to Compound 128. The BTK resynthesis rate was determined to be 61% per day in normal monocytes. The right graph (see FIG. 2) depicts the BTK resynthesis rate in the presence of BTK inhibitor Compound 128 in two different cell lines.
BTK resynthesis was measured in additional AML and MF cell types as described in Example 1 following a one hour exposure to Compound 128 (see FIG. 3). MOLM-13 cells resynthesized BTK at a rate of only 21% per day, while THP-1 cells resynthesized BTK at a rate of 84% per day and UKE-1 cells resynthesized BTK at a rate of over 100% per day.
For orientation: An ELISA detects its analyte on a solid surface through an enzyme-linked reagent.

One may read the half-life as the time needed for the level to fall by half in the phase considered. A high value points to slow decline. For `C=CC(=O)N1CCC(F)(CNc2ncnc(N)c2-c2ccc(Oc3ccccc3)cc2)CC1` [Compound 128, 1-(4-(((6-amino-5-(4-phenoxyphenyl)pyrimidin-4-yl)amino)methyl)-4-fluoropiperidin-1-yl)prop-2-en-1-one], the half-life in series [1] is 1 to 2 h. Further, the “initial BTK resynthesis rate” value on BTK (HEL-92 (myelofibrosis) cells) is listed as 43 % per day; at BTK (MV-411 cells (AML)), 83 % per day. Also, the “BTK resynthesis rate after repeated exposure” value on BTK (HEL-92 (myelofibrosis) cells, repeated exposure) is 28 % per day. The “change of BTK resynthesis rate after treatment” value on BTK (Hel-92 cells, after 4 days of treatment) is recorded as “decreased BTK resynthesis rate”; on BTK (MV-411 cells, after 7 days of treatment) it was “decreased BTK resynthesis rate”. The BTK resynthesis rate result at BTK (Hel-92 cells, saturating concentration, washout, culture up to 48 hours) was “over 100 % per day”; on BTK (MOLM-13 cells, one hour exposure) it was 21 % per day; at BTK (MV-411 cells, saturating concentration, washout, culture up to 48 hours) it was “over 100 % per day”; at BTK (RAMOS B cells, saturating concentration, washout, culture up to 48 hours) it was 26 % per day; at BTK (THP-1 cells, one hour exposure), 84 % per day; at BTK (UKE-1 cells, one hour exposure), “over 100 % per day”. The BTK resynthesis rate at BTK (culture of primary myeloid cells from a healthy donor) was 67 % per day; at BTK (cultures of primary cells from patients with relapsed AML), 57 % per day; at BTK (monocytes from a normal individual, two hour exposure), 61 % per day; at BTK (naïve AML patients), “roughly 30 % per day”. Also, the “BTK resynthesis rate after continued exposure” value on BTK (MV-411 cells (AML), continued exposure for seven days) is given as 44 % per day. On BTK (following covalent inhibition by Compound 128), the “de novo BTK resynthesis rate, HEL-92 cells compared to Ramos B-lymphoblastoid cell line” value is on record as “four-fold higher”.
